Source: patent US20230303497A1, “BENZYLAMINE OR BENZYL ALCOHOL DERIVATIVE AND USES THEREOF” (CHENGDU HYPERWAY PHARMACEUTICALS CO., LTD, priority 2020, published 2023)
pIC50: −log10 of the molar value.

Biological target: human NaV1.8 ion channel (Homo sapiens (Human), UniProt Q9Y5Y9)
Experiment: Compound inhibition activity on human NaV1.8 ion channel in HEK293 cells (whole-cell patch clamp)
Format: cell-based
Settings: 100 nm concentration; HEK293 cells, resting protocol; read-out: Inhibition ratio of Nav1.8 (Activity of inhibition)

Chain of human NaV1.8 ion channel (Q9Y5Y9 whole entry): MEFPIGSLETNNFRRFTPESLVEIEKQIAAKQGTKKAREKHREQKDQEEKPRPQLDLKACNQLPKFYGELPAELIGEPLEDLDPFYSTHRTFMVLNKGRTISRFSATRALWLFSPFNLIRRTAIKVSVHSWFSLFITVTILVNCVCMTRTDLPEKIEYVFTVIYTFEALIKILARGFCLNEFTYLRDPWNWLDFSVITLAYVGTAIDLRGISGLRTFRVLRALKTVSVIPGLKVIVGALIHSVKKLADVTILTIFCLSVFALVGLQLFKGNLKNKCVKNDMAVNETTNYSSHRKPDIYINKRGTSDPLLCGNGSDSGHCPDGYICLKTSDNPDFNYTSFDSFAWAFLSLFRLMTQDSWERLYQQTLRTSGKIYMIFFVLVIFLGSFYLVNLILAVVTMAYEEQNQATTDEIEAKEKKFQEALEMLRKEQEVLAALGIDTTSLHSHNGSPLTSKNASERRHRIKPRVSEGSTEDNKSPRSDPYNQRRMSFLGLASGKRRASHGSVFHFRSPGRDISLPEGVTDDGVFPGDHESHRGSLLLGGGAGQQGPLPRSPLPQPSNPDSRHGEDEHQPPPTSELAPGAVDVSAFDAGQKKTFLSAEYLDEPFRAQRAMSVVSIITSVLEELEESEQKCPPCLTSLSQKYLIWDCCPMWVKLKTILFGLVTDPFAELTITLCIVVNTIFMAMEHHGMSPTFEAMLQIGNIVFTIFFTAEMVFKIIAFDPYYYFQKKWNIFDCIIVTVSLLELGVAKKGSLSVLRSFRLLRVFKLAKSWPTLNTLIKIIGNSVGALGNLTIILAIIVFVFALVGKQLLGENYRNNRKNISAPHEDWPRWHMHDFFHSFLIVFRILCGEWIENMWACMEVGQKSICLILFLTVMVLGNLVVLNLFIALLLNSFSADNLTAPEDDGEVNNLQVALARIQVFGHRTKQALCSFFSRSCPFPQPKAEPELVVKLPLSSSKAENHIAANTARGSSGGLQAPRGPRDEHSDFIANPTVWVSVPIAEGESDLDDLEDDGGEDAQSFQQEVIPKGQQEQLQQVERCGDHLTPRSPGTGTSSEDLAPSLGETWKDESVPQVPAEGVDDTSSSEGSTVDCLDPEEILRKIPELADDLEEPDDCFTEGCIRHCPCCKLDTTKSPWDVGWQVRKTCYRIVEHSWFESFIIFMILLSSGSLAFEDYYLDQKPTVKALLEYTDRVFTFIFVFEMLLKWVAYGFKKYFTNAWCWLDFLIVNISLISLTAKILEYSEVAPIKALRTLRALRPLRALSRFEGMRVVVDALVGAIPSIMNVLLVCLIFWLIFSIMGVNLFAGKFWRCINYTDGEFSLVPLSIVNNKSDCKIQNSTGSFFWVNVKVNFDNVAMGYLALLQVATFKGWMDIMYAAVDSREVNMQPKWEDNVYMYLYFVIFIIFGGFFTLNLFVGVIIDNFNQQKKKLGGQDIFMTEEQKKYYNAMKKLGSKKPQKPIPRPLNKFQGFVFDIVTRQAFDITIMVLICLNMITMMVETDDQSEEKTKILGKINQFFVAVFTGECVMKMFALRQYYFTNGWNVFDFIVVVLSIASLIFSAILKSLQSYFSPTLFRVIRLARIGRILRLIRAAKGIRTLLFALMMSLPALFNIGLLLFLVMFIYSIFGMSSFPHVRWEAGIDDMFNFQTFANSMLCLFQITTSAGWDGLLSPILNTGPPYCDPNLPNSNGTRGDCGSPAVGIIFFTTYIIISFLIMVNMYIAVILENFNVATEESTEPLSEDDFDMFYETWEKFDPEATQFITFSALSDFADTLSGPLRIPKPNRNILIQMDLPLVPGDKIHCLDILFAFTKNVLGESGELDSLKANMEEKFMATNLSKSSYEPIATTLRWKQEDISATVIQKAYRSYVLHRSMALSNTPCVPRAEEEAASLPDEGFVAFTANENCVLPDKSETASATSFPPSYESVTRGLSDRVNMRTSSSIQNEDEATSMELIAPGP

| inhibition at 0.1 µM | SMILES |
| --- | --- |
| > 80% | Cc1cc(F)ccc1Oc1ccc(C(F)(F)F)cc1C(=O)Nc1ccc(F)c(C(N)C(N)=O)c1 (centres unmarked) [Example 36] |
| 50 to 80% | COCCC(N)c1cc(NC(=O)c2cc(C(F)(F)F)c(C3CC3)cc2Oc2ccc(F)cc2C)ccc1F (centres unmarked) [Example 5, N-(3-(1-Amino-3-methoxypropyl)-4-fluorophenyl)-4-cyclopropyl-2-(4-fluoro-2-methylphenoxy)-5-(trifluoromethyl) benzamide] |
| > 80% | Cc1cc(F)ccc1Oc1cc(C2CC2)c(C(F)(F)F)cc1C(=O)Nc1ccc(F)c(C(N)CCN)c1 (centres unmarked) [Example 24, 4-Cyclopropyl-N-(3-(1,3-diaminopropyl)-4-fluorophenyl)-2-(4-fluoro-2-methylphenoxy)-5-(trifluoromethyl) benzamide] |
| > 80% | Cc1cc(F)ccc1Oc1cc(C2CC2)c(C(F)(F)F)cc1C(=O)Nc1ccc(F)c(C(N)C2CCNC2=O)c1 (centres unmarked) [Example 19, N-(3-(amino (2-oxopyrrolidin-3-yl)methyl)-4-fluorophenyl)-4-cyclopropyl-2-(4-fluoro-2-methylphenoxy)-5-(trifluoromethyl) benzamide] |
| 50 to 80% | Cc1cc(F)ccc1Oc1ccc(C(F)(F)F)cc1C(=O)Nc1ccc(F)c(C(N)CCO)c1 (centres unmarked) [Example 38] |
| 50 to 80% | Cc1cc(F)ccc1Oc1cc(C2CC2)c(C(F)(F)F)cc1C(=O)Nc1ccc(F)c(C(N)CC(C)O)c1 (centres unmarked) [Example 20, N-(3-(1-Amino-3-hydroxybutyl)-4-fluorophenyl)-4-cyclopropyl-2-(4-fluoro-2-methylphenoxy)-5-(trifluoromethyl) benzamide] |
| < 20% | Cc1cc(F)ccc1Oc1cc(C2CC2)c(C(F)(F)F)cc1C(=O)Nc1ccc(F)c(C(F)(F)C(=O)NCCO)c1 [Example 33, 4-Cyclopropyl-N-(3-(1,1-difluoro-2-((2-hydroxyethyl)amino)-2-oxoethyl)-4-fluorophenyl)-2-(4-fluoro-2-methylphenoxy)-5-(trifluoromethyl) benzamide] |
| 50 to 80% | Cc1cc(F)ccc1Oc1ccc(C(F)(F)F)cc1C(=O)Nc1ccnc(CN)c1 [Example 40] |
| > 80% | Cc1cc(F)ccc1Oc1cc(C2CC2)c(C(F)(F)F)cc1C(=O)Nc1ccnc(C(N)CC(N)=O)c1 (centres unmarked) [Example 35] |
| > 80% | CNC(C(N)=O)c1cc(NC(=O)c2cc(C(F)(F)F)c(C3CC3)cc2Oc2ccc(F)cc2C)ccc1F (centres unmarked) [Example 10, N-(3-(2-amino-1-(methylamino)-2-oxoethyl)-4-fluorophenyl)-4-cyclopropyl-2-(4-fluoro-2-methylphenoxy)-5-(trifluoromethyl) benzamide] |
| > 80% | Cc1cc(F)ccc1Oc1cc(C(F)(F)F)ccc1C(=O)Nc1ccc(F)c(C(N)CC(N)=O)c1 (centres unmarked) [Example 39] |

Same assay, conditions: 100 nm concentration; HEK293 cells, resting protocol; read-out: Inhibition ratio of compounds against Nav1.8 (Activity of inhibition)

| inhibition at 0.1 µM | SMILES |
| --- | --- |
| 20 to 50% | Cc1cc(F)ccc1Oc1cc(C2CC2)c(C(F)(F)F)cc1C(=O)Nc1cnnc(OC[C@H](O)CO)c1 [Example 112] |
| 50 to 80% | CC(=O)NCC(O)COc1cc(NC(=O)c2cc(C(F)(F)F)c(C3CC3)cc2Oc2ccc(F)cc2C)ccc1F (centres unmarked) [Example 81] |
| 20 to 50% | Cc1cc(F)ccc1Oc1cc(C2CC2)c(C(F)(F)F)cc1C(=O)Nc1ccc(F)c(OCC(O)CNc2ccccc2)c1 (centres unmarked) [Example 92] |
| 20 to 50% | Cc1cc(F)ccc1Oc1cc(C2CC2)c(C(F)(F)F)cc1C(=O)Nc1ccc(F)c(OCC(O)CN2CCCC2)c1 (centres unmarked) [Example 79] |
| 50 to 80% | Cc1cc(F)ccc1Oc1cc(C2CC2)c(C(F)(F)F)cc1C(=O)Nc1ccc(F)c(OC2CC(O)C2)c1 (centres unmarked) [Example 71] |
| 50 to 80% | Cc1cc(F)ccc1Oc1cc(C2CC2)c(C(F)(F)F)cc1C(=O)Nc1ccc(F)c(OCC(O)CNc2cnn(C)c2)c1 (centres unmarked) [Example 97] |
| 50 to 80% | Cc1cc(F)ccc1Oc1cc(C(F)(F)F)ccc1C(=O)Nc1ccc(F)c(OCC(O)CN)c1 (centres unmarked) [Example 110] |
| 20 to 50% | Cc1cc(F)ccc1Oc1cc(C2CC2)c(C(F)(F)F)cc1C(=O)Nc1ccc(F)c(C(CCO)NS(C)(=O)=O)c1 (centres unmarked) [Example 73] |
| 20 to 50% | Cc1cc(F)ccc1Oc1cc(C2CC2)c(C(F)(F)F)cc1C(=O)Nc1ccnc(OCC(O)CNC(C)(C)C)c1 (centres unmarked) [Example 64, N-(2-(3-(tert-butylamino)-2-hydroxypropoxy)pyridin-4-yl)-4-cyclopropyl-2-(4-fluoro-2-methylphenoxy)-5-(trifluoromethyl) benzamide] |
| 50 to 80% | Cc1cc(F)ccc1Oc1cc(C2CC2)c(C(F)(F)F)cc1C(=O)Nc1ccnc(OC[C@@H](O)CO)c1 [Example 105] |
| > 80% | Cc1cc(F)ccc1Oc1cc(C2CC2)c(C(F)(F)F)cc1C(=O)Nc1cccc(OCC(O)CNC(C)C)c1 (centres unmarked) [Example 82] |
| 20 to 50% | Cc1cc(F)ccc1Oc1cc(C2CC2)c(C(F)(F)F)cc1C(=O)Nc1ccc(F)c(OCC(O)CNc2ccc(F)cc2)c1 (centres unmarked) [Example 96] |
| 50 to 80% | Cc1cc(F)ccc1Oc1cc(C2CC2)c(C(F)(F)F)cc1C(=O)Nc1ccc(F)c(OCC(O)CNc2ncc[nH]2)c1 (centres unmarked) [Example 100] |
| > 80% | Cc1cc(F)ccc1Oc1cc(C(F)(F)F)c(Cl)cc1C(=O)Nc1ccnc(OC[C@@H](O)CO)c1 [Example 113, (S)-5-chloro-N-(2-(2,3-dihydroxypropoxy)pyridin-4-yl)-2-(4-fluoro-2-methylphenoxy)-4-(trifluoromethyl) benzamide] |
| 20 to 50% | Cc1cc(F)ccc1Oc1cc(C2CC2)c(C(F)(F)F)cc1C(=O)Nc1ccc(F)c(OCC(O)CNC2(C(=O)O)CC2)c1 (centres unmarked) [Example 86] |

Biological target: hERG ion channels (Homo sapiens (Human), UniProt Q12809)
Sequence (Q12809 whole entry): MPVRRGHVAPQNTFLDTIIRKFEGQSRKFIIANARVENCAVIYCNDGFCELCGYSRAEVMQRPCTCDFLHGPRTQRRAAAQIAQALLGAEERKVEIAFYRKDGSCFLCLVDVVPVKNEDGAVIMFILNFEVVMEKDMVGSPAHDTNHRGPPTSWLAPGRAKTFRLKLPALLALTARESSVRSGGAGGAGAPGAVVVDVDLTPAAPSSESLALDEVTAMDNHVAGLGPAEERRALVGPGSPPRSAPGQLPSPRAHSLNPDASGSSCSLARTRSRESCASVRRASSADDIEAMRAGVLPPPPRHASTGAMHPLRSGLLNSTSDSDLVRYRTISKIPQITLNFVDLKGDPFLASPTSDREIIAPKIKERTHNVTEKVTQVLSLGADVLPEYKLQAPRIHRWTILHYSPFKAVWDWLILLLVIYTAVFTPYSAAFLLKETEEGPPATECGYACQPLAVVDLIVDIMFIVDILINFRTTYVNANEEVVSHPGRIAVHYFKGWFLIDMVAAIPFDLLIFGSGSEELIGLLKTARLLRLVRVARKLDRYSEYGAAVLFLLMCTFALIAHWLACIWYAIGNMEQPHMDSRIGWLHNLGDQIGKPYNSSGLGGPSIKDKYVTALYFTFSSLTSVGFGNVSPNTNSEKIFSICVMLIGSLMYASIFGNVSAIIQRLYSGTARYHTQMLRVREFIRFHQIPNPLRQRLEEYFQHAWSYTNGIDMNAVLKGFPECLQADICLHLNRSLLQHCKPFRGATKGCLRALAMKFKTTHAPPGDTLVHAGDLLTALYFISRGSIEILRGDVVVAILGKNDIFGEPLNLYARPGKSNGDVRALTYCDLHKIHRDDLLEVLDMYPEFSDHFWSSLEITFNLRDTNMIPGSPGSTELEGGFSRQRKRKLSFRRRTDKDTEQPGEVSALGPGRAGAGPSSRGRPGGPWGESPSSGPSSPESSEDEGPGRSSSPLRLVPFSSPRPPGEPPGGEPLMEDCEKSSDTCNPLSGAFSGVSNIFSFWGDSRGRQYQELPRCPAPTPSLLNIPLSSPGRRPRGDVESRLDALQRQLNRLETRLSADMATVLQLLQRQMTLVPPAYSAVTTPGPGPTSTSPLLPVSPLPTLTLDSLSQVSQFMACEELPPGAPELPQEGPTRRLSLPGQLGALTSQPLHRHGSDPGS
Experiment: Inhibition activity test on hERG ion channels in HEK293 cells (cardiac safety, patch clamp)
Settings: human, pH 7.4
Description: This experiment is used as a cardiac safety test of compound.
The reagents are purchased from Sigma (St. Louis, MO) except NaOH and KOH for acid-base titration. Final concentrations of tested solutions are prepared on the testing day and dissolved in extracellular fluid. […] All the test solutions and the control solutions contain 0.3% DMSO. Intracellular fluid (mM) contains: K Aspartate, 130; MgCl2, 5; EGTA 5; HEPES, 10; Tris-ATP 4; pH 7.2 (KOH titration).
Cells: all experiments is performed at room temperature. Each cell itself is taken as the corresponding control.
Compounds are all perfused using a perfusion system that utilizes the gravity. At least two cells are tested per concentration. After current stabilization (or 5 minutes), the change in current magnitude before and after the use of the compound is compared to calculate the blocking effect of the compound.
The method of operation is the same as that of the test compound.
Electrophysiology: Transfer the Cells to the perfusion tank and perfuse with extracellular fluid. The intracellular fluid (mM) contains: K Aspartate, 130; MgCl2, 5; EGTA 5; HEPES, 10; Tris-ATP 4; pH 7.2 (KOH titration). The intracellular fluid is stored in small quantities in portions in a −80° C. refrigerator, and melt on the day of the experiment. Electrodes are drawn with PC-10 (Narishige, Japan). Recording is performed with whole-cell diaphragm clamp. Noise is filtered with one-fifth of the sampling frequency.
This process is repeated every 20 seconds. The hERG tail current is the pure hERG current. The maximum tail current triggered by the second square wave is detected, and when the current is stabilized, the test compound is perfused. The strength of the block is calculated when the response is stabilized.

| SMILES | pIC50 |
| --- | --- |
| Cc1cc(F)ccc1Oc1ccc(C(F)(F)F)cc1C(=O)Nc1ccc(F)c(C(N)C(N)=O)c1 (centres unmarked) [Example 36] | 4.98 |
| Cc1cc(F)ccc1Oc1ccc(C(F)(F)F)cc1C(=O)Nc1ccc(F)c(C(N)CCO)c1 (centres unmarked) [Example 38] | 5.52 |

Same assay, conditions: read-out: IC50 for hERG inhibited by compounds; HEK293 cells, hERG tail current

| SMILES | pIC50 |
| --- | --- |
| Cc1cc(F)ccc1Oc1ccc(C(F)(F)F)cc1C(=O)Nc1ccc(F)c(C(N)CC(N)=O)c1 (centres unmarked) [Example 1, N-(3-(1,3-diamino-3-oxopropyl)-4-fluorophenyl)-2-(4-fluoro-2-methylphenoxy)-5-(trifluoromethyl) benzamide] | 5.49 |

System: not listed separately
Experiment: In vivo pharmacokinetic testing of compounds in rats
Settings: rat; male SD rats, single oral dose 100 mg/kg, plasma; VX-150 dosed as prodrug, active form analysed
Description: Test Case 4: In Vivo Pharmacokinetic Testing of Compounds in Rats
All SD rats in the test are male and are purchased from Shanghai Sippe-Bk Lab Animal Co., Ltd. Each compound is administered orally (100 mg/kg, 3 rats per group) at single dose to SD rats for pharmacokinetic study. The solutions are prepared on the same day of administration, e.g., the tested compound is suspended in 5% DMSO+95% saline, get vortexed for 2 min, and sonicated for 5 min to prepare a drug delivery system. The animals are fasted for 10-14 hours before oral administration, and resumed food 4 hours after administration. After oral administration by gavage in SD rats, pharmacokinetic samples are collected from jugular vein at the following time points: 0, 15 min, 30 min, 1 h, 2 h, 4 h, 6 h, 8 h and 24 h. Three whole blood samples are collected at each time point in a volume of about 0.2 mL and anticoagulated using sodium heparin. Blood samples are placed on ice immediately after collection and plasma is separated by centrifugation within 1 h (centrifugation conditions: 6800 rpm, 6 min, 2-8° C.). The collected plasma is stored in a −80° C. refrigerator prior to analysis.
In pharmacokinetic tests in rat, the control compound VX-150 is a prodrug (WO2015089361, compound 9), after administration, analysis is performed to test its active form (WO2014120808, compound 10). The aforementioned in vitro pharmacological tests are performed using the active ingredient (WO2014120808, compound 10).

| half-life | SMILES |
| --- | --- |
| 6.3 h | Cc1cc(F)ccc1Oc1cc(C2CC2)c(C(F)(F)F)cc1C(=O)Nc1cnnc(OC[C@H](O)CO)c1 [Example 112] |

Same assay, conditions: rat; male SD rats, single oral dose 100 mg/kg, plasma; VX-150 dosed as prodrug, active form analysed; read-out: AUC

| AUC | SMILES |
| --- | --- |
| 115 µg·h/mL | Cc1cc(F)ccc1Oc1cc(C2CC2)c(C(F)(F)F)cc1C(=O)Nc1cnnc(OC[C@H](O)CO)c1 [Example 112] |

Same assay, conditions: rat; male SD rats, single oral dose 100 mg/kg, plasma; VX-150 dosed as prodrug, active form analysed; read-out: Cmax

| Cmax | SMILES |
| --- | --- |
| 8270 ng/mL | Cc1cc(F)ccc1Oc1cc(C2CC2)c(C(F)(F)F)cc1C(=O)Nc1cnnc(OC[C@H](O)CO)c1 [Example 112] |
